Columns and labels:
HIVIIIB = HIVIIIB entry into / infection of A3.01 cells, p24 antigen; type: cell-based, HIV; details: 100 μM, 30 minutes before virus
Protocol: FIG. 33. […] Cells were washed and incubated in complete medium at 5% CO2 and 37° C. for up to 10 days. […] B Concentration dependence of GSAO. […] Cells were washed, incubated in complete medium at 5% CO2 and 37° C. for 3 days and the conditioned medium collected and assayed for p24 antigen.
FIG. 34. Inhibition of HIVIIIB infection of A3.01 cells by GSAO.
A3.01 human T cells were exposed to GSAO for 30 minutes and then to HTLVIIIB virus for 2 hours after which the cells were washed and then cultured for up to 10 days. HTLVIIIB and A3.01 cells were obtained from the NIH AIDS Research and Reference Reagent Program, Rockville, Mass. Virus stocks were made and infectivity titer determined using A3.01 cells and the p24 antigen assay (Coulter, Miami, Fla.). A3.01 cells were cultured in RPMI medium containing 10% fetal calf serum. […] Cell numbers and cell viability were determined at the times specified by staining cells with trypan blue and counting using a Neubauer haemacytometer. Cell viability was measured as a percentage of live cells to total cells.

HMEC-1 or HUVE cells = experiment: GSAO-B labelling of endothelial cell surface proteins; type: cell-based, human
Protocol: FIG. 16. Identification of endothelial cell surface proteins that contain closely spaced dithiols). A The surface of HMEC-1 or HUVE cells (2×10^6 cells in 0.4 mL) was labelled with GSAO-B (100 μM) for 30 minutes at room temperature in the absence (lanes 1 and 3) or presence of DMP (400 μM) (lane 2). The endothelial cells were lysed and the lysate from both incubations was resolved on 4-15% SDS-PAGE, transferred to PVDF membrane, and blotted with streptavidin peroxidase to detect the GSAO-B label. The results represent labelling of 3×10^4 HMEC-1 (lanes 1 and 2) of HUVE cells (lane 3). The positions of Mr markers are shown at left. B Densitometry profile of the surface labelled proteins (lanes 1 and 3). The apparent Mr's of the individual proteins are indicated.
Human umbilical vein endothelial cells (HUVEC) (Wall et al., 1978) and the human dermal microvascular endothelial cell line, HMEC-1 (Ades et al., 1992), were harvested and cultured as indicated. Endothelial cells (5×10^6) were detached from culture flasks using 5 mM EDTA in PBS at 37° C., washed 3 times with PBS, resuspended in PBS containing 100 μM of GSAO-B in the absence or presence of 400 μM DMP, and incubated for 30 minutes at room temperature. The cells were washed 3 times with 1 mL of PBS, resuspended in 0.2 mL of ice cold 50 mM Tris/HCl, pH 8 buffer containing 0.5 M NaCl, 1% Triton X-100, 10 μM leupeptin, 2 mM PMSF (Sigma Chemical Company, St, Louis, Mo.), 5 mM EDTA and 10 μM aprotinin (Bayer Australia Ltd., Sydney, NSW), and sonicated on ice. On some occasions the cell lysates were incubated with streptavidin-agarose (Sigma, Castle Hill, NSW) beads (25 μL of packed beads in a total volume of 1 mL) for 60 minutes at 4° C. with rotary mixing. Bound proteins were washed 5 times with 50 mM Tris/HCl, pH 8 buffer containing 0.15 M NaCl and 0.05% Triton X-100, resolved on SDS-PAGE, transferred to PVDF membrane, and the GSAO-B-labeled proteins detected by Western blot.

PDI = experiment: GSAO-B labelling of PDI on the endothelial cell surface; type: cell-based; details: 100 μM GSAO-B, 30 minutes
Protocol: FIG. 17. PDI was one of the GSAO-B labelled proteins on the endothelial cell surface. HUVEC (5×10^6 cells in 0.75 mL) were labelled with GSAO-B (100 μM) for 30 minutes at 37° C. in the absence (lanes 1) or presence of DMP (400 μM) (lane 2). The cells were lysed and incubated with streptavidin-agarose beads to collect the biotin-labelled proteins. The labelled proteins were resolved on 4-15% SDS-PAGE, transferred to PVDF membrane, and blotted with anti-PDI monoclonal antibodies. The results represent labelling of 5×10^6 endothelial cells. The positions of Mr markers are shown at left.
BAE cells were labeled with GSAO-B in the absence or presence of DMP, lysed and incubated with streptavidin-agarose beads to collect the biotin-labeled proteins. The labeled proteins were eluted from the beads, resolved on SDS-PAGE, transferred to PVDF membrane, and blotted with anti-PDI polyclonal antibodies.

bovine serum albumin = bovine serum albumin (Bos taurus, UniProt P02769); experiment: GSAO-B labelling of purified protein, streptavidin-peroxidase blot (negative control protein); type: binding; details: 100 μM GSAO-B, 5 μM protein, 30 minutes
Protocol: (§1) FIG. 14. Interaction of GSAO-B with PDI and thioredoxin. A Structure of GSAO-B. B Purified human recombinant PDI (5 μM), human recombinant thioredoxin (5 μM) or bovine serum albumin (5 ? M) was incubated with dithiothreitol (10 μM) for 60 minutes at room temperature to ensure that the active site disulfide(s) of PDI and thioredoxin were in the reduced dithiol form. GSAO-B (100 ? M) or GSAO-B and DMP (400 μM) was then added and the reactions incubated for 30 minutes at room temperature. The labelled PDI (lanes 1 and 2), thioredoxin (lanes 3 and 4) and albumin (lane 5) (75 pmoles) was resolved on […] SDS-PAGE, transferred to PVDF membrane, and blotted with streptavidin-peroxidase to detect the GSAO-B label. The positions of Mr markers are shown at left.
Human recombinant PDI and thioredoxin bound GSAO-B (FIG. 14). Recombinant human protein disulfide isomerase (PDI) was produced in E. coli and purified according to Jiang et al. (1999). […] Proteins were detected by Western blot using an anti-PDI murine monoclonal antibody (Jiang et al., 1999) (used at 2 μg per mL). […] Chemiluminescence films were analysed using a GS-700 Imaging Densitometer and Multi-Analyst software (Bio-Rad, Hercules, Calif.).

Thioredoxin = target: T1, Thioredoxin (Homo sapiens, UniProt P10599); experiment: GSAO-B labelling of purified protein, streptavidin-peroxidase blot; type: binding; details: 100 μM GSAO-B, 5 μM protein, 30 minutes
T1 construct: purchased American Diagnostica, Greenwich, Conn; host or cells: E. coli
Protocol: as §1
(§2) Human recombinant PDI and thioredoxin bound GSAO-B (FIG. 14). Recombinant human protein disulfide isomerase (PDI) was produced in E. coli and purified according to Jiang et al. (1999). In the experiment, purified PDI, thioredoxin or albumin as negative control were incubated with a 2-fold molar excess of dithiothreitol for 60 minutes to ensure that the active site disulfides of PDI and thioredoxin were in the reduced dithiol state. The proteins were then incubated with GSAO-B or GSAO-B and a 4-fold molar excess of DMP for 30 minutes. Equivalent moles of the labeled proteins were resolved on SDS-PAGE, transferred to PVDF membrane, and blotted with streptavidin-peroxidase to detect the GSAO-B label. Samples were resolved on 4-15% SDS-PAGE under non-reducing conditions (Laemmli, 1970) and transferred to PVDF membrane. Proteins were detected by Western blot using an anti-PDI murine monoclonal antibody (Jiang et al., 1999) (used at 2 μg per mL). Rabbit anti-mouse horseradish peroxidase conjugated antibodies (Dako Corporation, Carpinteria, Calif.) were used at 1:2000 dilution. GSAO-B-labeled proteins were blotted with streptavidin peroxidase (Amersham, Sydney, NSW) used at 1:1000 dilution. […] Chemiluminescence films were analysed using a GS-700 Imaging Densitometer and Multi-Analyst software (Bio-Rad, Hercules, Calif.).

human recombinant PDI = target: T2, human recombinant PDI (Homo sapiens, UniProt P07237); experiment: as above; type: binding
T2 construct: made in house; host or cells: E. coli
Protocol: as §1, §2

cell surface CD4 = target: T3, cell surface CD4 (Homo sapiens, UniProt P01730); experiment: Labelling of cell surface CD4 on CEM-T4 cells; type: cell-based; details: 100 μM, 30 min
T3 construct: host or cells: CEM-T4
Protocol: FIG. 32. Labelling of cell surface CD4 with GSAO-B. CEM-T4 were labelled with either MPB or GSAO-B. The biotin-labelled proteins were collected on streptavidin-agarose beads, resolved on 5-15% SDS-PAGE and Western blotted using Leu3a monoclonal antibody. Lane 1 is MPB-labelled CEM-T4 CD4 and lane 2 is GSAO-B-labelled CEM-T4 CD04. Lane 3 is a control experiment where GSAO-B was incubated with CEM-T4 cells in the presence of 400 μM DMP. Biotin-labelled proteins were from 2×10^6 cells. The positions of Mr markers in kDa are shown at left.
CEM-T4 cells were obtained from the NIH AIDS Research and Reference Reagent Program, Rockville, Mass., CEM-T4 (1 mL of 5×10^6 per mL in Hanks balanced salt solution) were incubated with either sulfosuccinimidobiotin (SSB), 3-(N-maleimidylpropionyl)biocytin (MPB), or GSAO-B (100 μM) for 30 min at room temperature SSB was from Pierce, Rockford, Ill. while MPB was from Molecular Probes, Eugene, Oreg.. Unreacted SSB was quenched with glycine (200 μM), while unreacted MPB was quenched with reduced glutathione (GSH, 200 μM) for 30 min at room temperature. The labelled cells were washed twice with PBS and sonicated in 1 mL of 50 mM Tris-HCl, 0.5 M NaCl, 1% (v/v) Triton X-100, 10 μM leupeptin, 10 μM aprotinin, 2 mM phenylmethylsulfonyl fluoride, 5 mM EDTA, pH 8.0 buffer at 4° C. […]
Labelled CD4 was detected by blotting with the Leu3a monoclonal antibody (FIG. 32).

[1] = Stability of the trivalent arsenicals towards oxidation; type: physicochemical; details: slowed by removal of O2, lower pH or glycine
Excerpt: This oxidation can be slowed in three ways; removal of dissolved O2 from solutions containing the arsenoxides, lowering the pH of these solutions, or by addition of glycine to the solutions. Glycine is routinely used to prevent oxidation of the stock solutions of the trivalent organoarsenicals. Similar to the reaction between 2,3-dimercaptopropanol and R—As(OH)2 in which a 5-membered dithioarsonite (XI) is formed, reaction of glycine with R—As(OH)2 is thought to give a 5-membered cyclic 1,3,2-oxazarsolidin-5-one (XII).

T2 sequence (P07237 18-508): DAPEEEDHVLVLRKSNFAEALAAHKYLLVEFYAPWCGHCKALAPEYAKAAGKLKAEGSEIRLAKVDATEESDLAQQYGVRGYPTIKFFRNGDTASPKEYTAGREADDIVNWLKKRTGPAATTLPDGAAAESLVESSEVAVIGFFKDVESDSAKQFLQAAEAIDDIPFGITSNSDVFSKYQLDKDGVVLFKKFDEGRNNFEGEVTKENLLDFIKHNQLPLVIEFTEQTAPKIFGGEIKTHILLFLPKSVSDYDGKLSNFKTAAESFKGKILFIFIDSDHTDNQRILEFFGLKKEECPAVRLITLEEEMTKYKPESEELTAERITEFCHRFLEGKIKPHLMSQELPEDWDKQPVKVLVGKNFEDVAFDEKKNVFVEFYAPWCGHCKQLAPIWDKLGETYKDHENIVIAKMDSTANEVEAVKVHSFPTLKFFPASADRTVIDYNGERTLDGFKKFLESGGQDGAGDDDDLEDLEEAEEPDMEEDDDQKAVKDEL
Sequence of bovine serum albumin (P02769 25-607): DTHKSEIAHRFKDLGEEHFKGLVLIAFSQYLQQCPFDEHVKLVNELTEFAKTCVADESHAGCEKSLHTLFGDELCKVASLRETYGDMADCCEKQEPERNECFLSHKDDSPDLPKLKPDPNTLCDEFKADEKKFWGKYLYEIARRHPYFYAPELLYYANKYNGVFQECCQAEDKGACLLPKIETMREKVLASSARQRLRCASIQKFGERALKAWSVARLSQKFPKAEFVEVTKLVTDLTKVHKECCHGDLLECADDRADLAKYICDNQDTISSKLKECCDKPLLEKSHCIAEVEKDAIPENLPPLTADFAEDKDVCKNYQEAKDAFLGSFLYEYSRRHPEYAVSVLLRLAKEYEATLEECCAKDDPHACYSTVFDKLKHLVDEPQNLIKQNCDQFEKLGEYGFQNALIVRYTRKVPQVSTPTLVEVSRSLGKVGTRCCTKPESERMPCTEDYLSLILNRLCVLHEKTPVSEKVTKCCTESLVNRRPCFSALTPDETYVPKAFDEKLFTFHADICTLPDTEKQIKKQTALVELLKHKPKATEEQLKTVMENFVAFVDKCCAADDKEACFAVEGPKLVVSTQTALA
T1 sequence (P10599 whole entry): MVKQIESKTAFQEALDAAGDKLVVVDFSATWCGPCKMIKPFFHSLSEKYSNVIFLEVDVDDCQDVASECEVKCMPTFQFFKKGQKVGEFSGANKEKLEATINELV

Which “inhibition of HIVIIIB entry” value (HIVIIIB) does the source give for O=C(CCCC[C@@H]1SC[C@@H]2NC(=O)N[C@@H]21)NCCCC[C@H](NC(=O)CCN1C(=O)C=CC1=O)C(=O)O [MPB, 3-(N-maleimidylpropionyl)biocytin, reference compound] here?
Its value is “Inhibition of HIVIIIB entry”.

Which “incorporation in the presence of DMP” value (HMEC-1 or HUVE cells; 100 μM GSAO-B with 400 μM DMP) does the source give for “4-(N-(S-(N-(6-(N-(6-(N-(biotinoyl)amino)hexanoyl)amino)hexanoyl)glutathionyl)acetyl)amino)phenylarsenoxide [GSAO-B]” here?
Its value is “effectively no incorporation of GSAO-B in the presence of DMP”.

And the “proteins on the endothelial cell surface that bind the compound” value (HMEC-1 or HUVE cells; 100 μM, 30 minutes)?
The value was “approximately ten proteins”.

And the “labelling of cell surface PDI” value (PDI)?
The value was “PDI was one of the proteins on the endothelial cell surface that incorporated GSAO-B”.

And the “incorporation of GSAO-B label” value (bovine serum albumin)?
The value was “albumin did not”.

What about the “incorporation of GSAO-B label” value (Thioredoxin) of the same compound?
Its value is “incorporated GSAO-B”.

What about the “incorporation of GSAO-B label” value (human recombinant PDI; 100 μM GSAO-B, 5 μM protein, 30 minutes) of the same compound?
The value was “incorporated GSAO-B”.

And the “density of labeling of PDI relative to thioredoxin” value (human recombinant PDI; equivalent moles of protein)?
Its value is “approximately twice that of thioredoxin”.

And the “labelling of T cell surface CD4” value (cell surface CD4)?
Its value is “incorporated GSAO-B”.

Which “stability of solutions towards oxidation” value [1] does the source give for O=[As]c1ccc(NC(=O)CBr)cc1 (stereo not shown) [BRAO, 4-(N-(bromoacetyl)amino)-phenylarsenoxide] here?
The value was “deactivated over time by oxidation”.
